We go through 15 compounds from PubChem BioAssay (NCI).

Molecules are shown by their SMILES.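 All cell lines were grown in 96-well plates and treated with compound for 48 hours. Definition used: TGI = concentration required for complete inhibition of growth.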

Test systems include SW-620 colon; NCI-H460 lung; HOP-62 NSCLC; UO-31 renal; HS 578T breast; HCT-15 colon; HT29 colon; NCI-H23 lung; RXF 393 renal; A498 renal.
What all share (assay): NCI tumour cell line growth inhibition, 48 h

For `O=C(Sc1c(-c2ccccc2)c(=O)n(-c2ccccc2)c(=S)n1-c1ccccc1)c1cccs1`, the TGI with SW-620 colon, in the assay on NCI-H460 lung, in the assay with HOP-62 NSCLC, with UO-31 renal, in the assay on HS 578T breast and in the assay on HCT-15 colon was above 100 µM in each case. The TGI in the assay on HT29 colon and in the assay with NCI-H23 lung was above 100 µM each time.

With `COc1ccc2nc3c(c(NCCCN(C)C)c2c1)CCCC3`, the TGI with SW-620 colon was 51.5 µM; in the assay on NCI-H460 lung, 24.3 µM; in the assay on HOP-62 NSCLC it was 30.9 µM; with UO-31 renal it was 39.6 µM; in the assay with RXF 393 renal, 29.5 µM; with HCT-15 colon it was 33.9 µM. The TGI in the assay with HT29 colon was found to be 27.6 µM; in the assay on NCI-H23 lung, 31.4 µM; in the assay with A498 renal, 36.3 µM.

Turning to `CN1CN(c2ccccc2)C2(CCN(CCCCCCF)CC2)C1=O`, the TGI with SW-620 colon is above 100 µM; with HOP-62 NSCLC it was 93.3 µM; with UO-31 renal it was 94.2 µM; in the assay on RXF 393 renal, above 100 µM; in the assay with HCT-15 colon, above 100 µM; in the assay with HT29 colon, above 100 µM. This compound showed a TGI in the assay with NCI-H23 lung above 100 µM.

With `CC(=O)NNc1nc(C)c(C(=O)NNC(=O)C(=O)Nc2cccc(C(C)=O)c2)s1`, the TGI with SW-620 colon was above 100 µM; with NCI-H460 lung, 33.2 µM; in the assay with HOP-62 NSCLC it was 68.2 µM; with UO-31 renal it was 30.9 µM; with RXF 393 renal, 30 µM; in the assay with HCT-15 colon, 52.5 µM. For the same compound, the results for the TGI in the assay with HT29 colon, with NCI-H23 lung and in the assay on A498 renal were above 100 µM, 35.2 µM and 47.8 µM, respectively.

With `Cc1ccc(N(O)C(C)(C)C)cc1`, the TGI in the assay on SW-620 colon, in the assay on NCI-H460 lung, with HOP-62 NSCLC, in the assay on UO-31 renal, with RXF 393 renal and with HCT-15 colon was above 100 µM throughout. Moreover, the TGI in the assay with HT29 colon, in the assay with NCI-H23 lung and in the assay on A498 renal was above 100 µM in each case.

Consider `Cc1cn(C2CC(CCCO)C(CO)O2)c(=O)[nH]c1=O` (stereo not given), for which the TGI in the assay with SW-620 colon, in the assay with NCI-H460 lung, in the assay with HOP-62 NSCLC, in the assay on UO-31 renal, in the assay on RXF 393 renal and with HCT-15 colon was above 100 µM in each case. Besides, the TGI in the assay with HT29 colon, with NCI-H23 lung and in the assay with A498 renal was above 100 µM each time.

In the case of `Cc1ccc(-n2cc(-c3ccc(Cl)cc3)c3c(NN)ncnc32)cc1`, the TGI is 26.2 µM in the assay with SW-620 colon; 14.1 µM in the assay with NCI-H460 lung; 22.6 µM in the assay on HOP-62 NSCLC; 12.3 µM with UO-31 renal; 7.31 µM with RXF 393 renal; 26.1 µM in the assay on HCT-15 colon. Also, the TGI was 19 µM with HT29 colon and 12.5 µM in the assay with NCI-H23 lung.

`COc1cccc(/C(Cl)=C(\C=O)c2cccc(OC)c2)c1`: the TGI is 19.5 µM in the assay with SW-620 colon; 26.4 µM in the assay with NCI-H460 lung; 30.1 µM in the assay with HOP-62 NSCLC; 68.1 µM with UO-31 renal; 25.1 µM in the assay with RXF 393 renal; 20.1 µM in the assay with HCT-15 colon. In addition, the figures for the TGI in the assay on HT29 colon, in the assay with NCI-H23 lung and in the assay with A498 renal were 24.9 µM, 22.7 µM and 36.3 µM, respectively.

With `O=S(=O)(c1ccc(-c2nnc(-c3ccc(F)cc3)o2)cc1)c1ccc(-c2nnc(-c3ccc(F)cc3)o2)cc1`, the TGI was above 100 µM with SW-620 colon; above 100 µM in the assay with NCI-H460 lung; above 100 µM in the assay with HOP-62 NSCLC; above 100 µM with UO-31 renal; 77.7 µM in the assay with RXF 393 renal; above 100 µM in the assay with HCT-15 colon. Besides, the TGI in the assay on HT29 colon was above 100 µM; in the assay with NCI-H23 lung it was above 100 µM; in the assay with A498 renal it was 58.6 µM.

With `CCOC(=O)C(C)Sc1nnc(COc2ccccc2OC)n1-c1ccccc1` (stereo not given), the TGI in the assay on SW-620 colon was 47 µM; in the assay with NCI-H460 lung, 32.2 µM; in the assay on HOP-62 NSCLC, above 100 µM; with UO-31 renal it was above 100 µM; in the assay with RXF 393 renal, above 100 µM; with HCT-15 colon it was 30.6 µM. Further, the TGI with HT29 colon, in the assay on NCI-H23 lung and in the assay on A498 renal was above 100 µM throughout.

Turning to `CC(C)(C)C(=O)OCC1OC(N=[N+]=[N-])C(OC(=O)C(C)(C)C)C(OC(=O)C(C)(C)C)C1OC(=O)C(C)(C)C` (stereo not given), the TGI in the assay on SW-620 colon, in the assay on NCI-H460 lung, with HOP-62 NSCLC, in the assay on UO-31 renal, in the assay with RXF 393 renal and in the assay with HCT-15 colon was above 100 µM each time. Further, the TGI in the assay on HT29 colon, in the assay with NCI-H23 lung and in the assay on A498 renal was above 100 µM in each case.

`Cc1ccc(S(=O)(=O)[C@@H](Cl)[C@H]2N=C(Cl)NN=C2c2ccccc2)cc1`: the TGI was 40.8 µM in the assay with SW-620 colon; above 100 µM in the assay on NCI-H460 lung; 42.7 µM in the assay on HOP-62 NSCLC; 35.7 µM with UO-31 renal; 37.3 µM in the assay with RXF 393 renal; 54.5 µM in the assay on HCT-15 colon. For the same compound, the TGI is above 100 µM in the assay with HT29 colon, 63.1 µM in the assay on NCI-H23 lung and 35.7 µM in the assay on A498 renal.

In the case of `CCC(COC(=O)CC[C@@H](NC(=O)C(C)NC(=O)C(C)OC1C(O)C(CO)OC(OCc2ccccc2)C1NC(C)=O)C(N)=O)NC1c2ccccc2Nc2cccc([N+](=O)[O-])c21` (stereo not given in full), the TGI was above 100 µM with SW-620 colon; above 100 µM with NCI-H460 lung; above 100 µM with HOP-62 NSCLC; above 100 µM in the assay with UO-31 renal; 84.6 µM with RXF 393 renal; above 100 µM in the assay on HCT-15 colon. Moreover, the TGI in the assay with HT29 colon and in the assay on NCI-H23 lung was above 100 µM each time.

Regarding `[O-][n+]1c(CN2CCCCC2)nc2cccc3c2c1-c1ccccc1-3`, the TGI in the assay with SW-620 colon is above 100 µM; in the assay on NCI-H460 lung it was 46 µM; in the assay on HOP-62 NSCLC, 48.6 µM; with UO-31 renal it was 26.3 µM; in the assay on RXF 393 renal it was 31.1 µM; in the assay on HCT-15 colon it was above 100 µM. In addition, the TGI in the assay with HT29 colon was 51.8 µM; in the assay on NCI-H23 lung, 48.5 µM; in the assay on A498 renal, 38.3 µM.

Regarding `O=c1c2ccccc2nc(-c2ccccc2)n1NC(=S)Nc1ccc(Cl)cc1`, the TGI in the assay with SW-620 colon, in the assay with NCI-H460 lung, in the assay with HOP-62 NSCLC, with UO-31 renal, in the assay with RXF 393 renal and in the assay with HCT-15 colon was above 100 µM each time. Also, the TGI with HT29 colon, in the assay on NCI-H23 lung and in the assay with A498 renal was above 100 µM each time.
